# Experimental data from patent publication US20230124862A1, “BISMUTH THIOL COMPOUNDS AND COMPOSITIONS AND METHODS OF TREATING MICROBIAL CO-INFECTIONS” (Microbion Corporation, priority 2020, published 2023).
# Several values for one entry are separate records, joined by “and”; a condition that tells them apart may be missing. Equal values may be shown once. Read-outs that look alike come from different tables or passages of the source.
# Type: in vivo, beagle dogs
# Procedure: Once adequately conditioned to the restraint device and face-masks, the animals are individually exposed to the test article aerosols. Animals receive a single face-mask inhalation exposure in a ramp study design to test article aerosols for up to 60 min. Animal observations during and post exposure determine the tolerance of inhaled BisEDT aerosols.
# Blood Collections and Bioanalytical Analysis: Blood are collected for pharmacokinetic (PK) analysis prior to exposure, then at 4 hr (±5 min) post exposure, and again on Day 1, Day 2, Day 7 (pre- and 4 hr (±5 min)-post exposure), Day 8, Day 9, Day 10, Day 11, Day 12, Day 13, and Day 14. A total of 0.25 mL is collected at each timepoint. No PK blood is collected from the vehicle control (Group 1) animals; only animals exposed to BisEDT have blood collected for PK analysis. Collected samples are flash frozen without processing for shipment to Medpace for bioanalytical analysis. Additional blood is collected from all animals in all groups for hematology (1 mL) and clinical chemistry (1 mL) at baseline, Day 7 (pre-exposure), and again at euthanasia. Blood (2-2 mL) is collected from all animals at necropsy for coagulation analysis (d-Dimer, fibrinogen, PT, and PTT).
# For clinical chemistry analyses, whole blood (1 mL) is placed into serum separator or clot tube and […] by centrifugation at a minimum of 1300 g at 2 to 8° C. for 10 (±1) min. Plasma samples are stored at −70 to −90° C. until analysis.
# Clinical chemistry samples are analyzed on a Hitachi Modular Analytics Clinical Chemistry System (Roche Diagnostics, Indianapolis, Ind.).
smiles,measurement,setting,value
"C1C[S][Bi]([S]CC[S][Bi]2[S]CC[S]2)[S]1 [BisEDT, Bismuth-1,2-ethanedithiol]",AGR,dog 2001 Male,1.9 and 2.0 and 1.8
same,ALB,dog 2001 Male,3.3 g/dL and 3.4 g/dL and 3.5 g/dL
same,ALPK,dog 2001 Male,130 IU/L and 140 IU/L and 128 IU/L
same,ALT,dog 2001 Male,22 IU/L
same,AST,dog 2001 Male,48 IU/L and 36 IU/L
same,BUN,dog 2001 Male,12 mg/dL and 16 mg/dL and 15 mg/dL
same,CA2,dog 2001 Male,10.9 mg/dL and 10.8 mg/dL and 11.0 mg/dL
same,CHOL,dog 2001 Male,168 mg/dL and 167 mg/dL and 152 mg/dL
same,CREA,dog 2001 Male,0.7 mg/dL and 0.6 mg/dL
same,Cl,dog 2001 Male,109 mmo/L and 113 mmo/L and 108 mmo/L
same,GGT,dog 2001 Male,3 IU/L
same,GLOB,dog 2001 Male,1.7 g/dL and 2.0 g/dL
same,GLUC,dog 2001 Male,91 mg/dL and 97 mg/dL and 102 mg/dL
same,K,dog 2001 Male,4.5 mmo/L and 4.9 mmo/L and 4.7 mmo/L
same,Na,dog 2001 Male,149 mmo/L and 147 mmo/L
same,TBIL,dog 2001 Male,0.15 mg/dL
same,TP,dog 2001 Male,5.0 g/dL and 5.1 g/dL and 5.5 g/dL
same,TRIG,dog 2001 Male,66 mg/dL and 80 mg/dL and 63 mg/dL
same,AGR,dog 2002 Female,1.7 and 2.3
same,ALB,dog 2002 Female,3.3 g/dL and 3.6 g/dL and 3.7 g/dL
same,ALT,dog 2002 Female,18 IU/L and 29 IU/L and 27 IU/L
same,AST,dog 2002 Female,35 IU/L and 41 IU/L and 38 IU/L
same,BUN,dog 2002 Female,13 mg/dL and 14 mg/dL
same,CA2,dog 2002 Female,10.9 mg/dL and 10.8 mg/dL and 10.6 mg/dL
same,CHOL,dog 2002 Female,138 mg/dL and 123 mg/dL and 114 mg/dL
same,CREA,dog 2002 Female,0.6 mg/dL
same,Cl,dog 2002 Female,110 mmo/L and 114 mmo/L and 113 mmo/L
same,GGT,dog 2002 Female,3 IU/L
same,GLOB,dog 2002 Female,1.9 g/dL and 1.6 g/dL
same,GLUC,dog 2002 Female,95 mg/dL and 98 mg/dL and 89 mg/dL
same,K,dog 2002 Female,5.0 mmo/L and 5.2 mmo/L and 4.6 mmo/L
same,Na,dog 2002 Female,149 mmo/L and 147 mmo/L and 148 mmo/L
same,TBIL,dog 2002 Female,0.15 mg/dL
same,TP,dog 2002 Female,5.2 g/dL and 5.3 g/dL
same,TRIG,dog 2002 Female,38 mg/dL and 39 mg/dL and 31 mg/dL
same,AGR,dog 3001 Male,2.0 and 2.1
same,ALB,dog 3001 Male,3.2 g/dL and 3.4 g/dL
same,ALPK,dog 3001 Male,142 IU/L and 135 IU/L and 121 IU/L
same,ALT,dog 3001 Male,26 IU/L and 24 IU/L and 22 IU/L
same,AST,dog 3001 Male,30 IU/L and 32 IU/L and 33 IU/L
same,CA2,dog 3001 Male,10.7 mg/dL and 10.5 mg/dL and 10.0 mg/dL
same,CHOL,dog 3001 Male,100 mg/dL and 111 mg/dL
same,CREA,dog 3001 Male,0.6 mg/dL and 0.7 mg/dL and 1.0 mg/dL
same,Cl,dog 3001 Male,111 mmo/L and 110 mmo/L and 109 mmo/L
same,GGT,dog 3001 Male,3 IU/L
same,GLOB,dog 3001 Male,1.6 g/dL and 1.7 g/dL
same,GLUC,dog 3001 Male,100 mg/dL and 88 mg/dL and 51 mg/dL
same,K,dog 3001 Male,4.7 mmo/L and 5.1 mmo/L and 5.8 mmo/L
same,Na,dog 3001 Male,146 mmo/L and 148 mmo/L
same,TBIL,dog 3001 Male,0.15 mg/dL
same,TP,dog 3001 Male,4.8 g/dL and 5.1 g/dL and 5.0 g/dL
same,TRIG,dog 3001 Male,26 mg/dL and 34 mg/dL and 52 mg/dL
same,AGR,dog 3002 Female,2.3 and 1.8 and 2.6
same,ALB,dog 3002 Female,3.5 g/dL and 3.7 g/dL
same,ALPK,dog 3002 Female,164 IU/L and 90 IU/L and 176 IU/L
same,ALT,dog 3002 Female,28 IU/L and 20 IU/L
same,AST,dog 3002 Female,36 IU/L and 28 IU/L and 30 IU/L
same,CA2,dog 3002 Female,11.2 mg/dL and 10.8 mg/dL and 10.4 mg/dL
same,CHOL,dog 3002 Female,126 mg/dL and 175 mg/dL and 141 mg/dL
same,CREA,dog 3002 Female,0.6 mg/dL and 0.5 mg/dL and 0.9 mg/dL
same,Cl,dog 3002 Female,112 mmo/L and 109 mmo/L and 110 mmo/L
same,GGT,dog 3002 Female,3 IU/L
same,GLOB,dog 3002 Female,1.5 g/dL and 2.0 g/dL and 1.4 g/dL
same,GLUC,dog 3002 Female,112 mg/dL and 90 mg/dL and 65 mg/dL
same,K,dog 3002 Female,5.5 mmo/L and 5.3 mmo/L and 5.9 mmo/L
same,Na,dog 3002 Female,149 mmo/L and 145 mmo/L
same,TBIL,dog 3002 Female,0.15 mg/dL
same,TP,dog 3002 Female,5.0 g/dL and 5.5 g/dL and 5.1 g/dL
same,TRIG,dog 3002 Female,34 mg/dL and 43 mg/dL and 58 mg/dL
same,AGR,dog 4001 Male,2.3 and 1.8 and 1.9
same,ALB,dog 4001 Male,3.6 g/dL and 3.4 g/dL and 3.2 g/dL
same,ALPK,dog 4001 Male,103 IU/L and 114 IU/L and 119 IU/L
same,ALT,dog 4001 Male,27 IU/L and 28 IU/L
same,AST,dog 4001 Male,32 IU/L and 39 IU/L and 34 IU/L
same,BUN,dog 4001 Male,11 mg/dL and 12 mg/dL
same,CA2,dog 4001 Male,10.8 mg/dL and 10.6 mg/dL and 10.4 mg/dL
same,CHOL,dog 4001 Male,153 mg/dL and 147 mg/dL and 111 mg/dL
same,CREA,dog 4001 Male,0.7 mg/dL and 0.6 mg/dL
same,Cl,dog 4001 Male,120 mmo/L and 116 mmo/L and 113 mmo/L
same,GGT,dog 4001 Male,3 IU/L
same,GLOB,dog 4001 Male,1.6 g/dL and 1.9 g/dL and 1.7 g/dL
same,GLUC,dog 4001 Male,102 mg/dL and 82 mg/dL and 86 mg/dL
same,K,dog 4001 Male,4.7 mmo/L and 4.8 mmo/L
same,Na,dog 4001 Male,152 mmo/L and 147 mmo/L and 145 mmo/L
same,TBIL,dog 4001 Male,0.15 mg/dL
same,TP,dog 4001 Male,5.2 g/dL and 5.3 g/dL and 4.9 g/dL
same,TRIG,dog 4001 Male,49 mg/dL and 46 mg/dL and 40 mg/dL
same,AGR,dog 4002 Female,1.7 and 1.8
same,ALB,dog 4002 Female,3.5 g/dL
same,ALPK,dog 4002 Female,147 IU/L and 103 IU/L
same,ALT,dog 4002 Female,20 IU/L and 21 IU/L
same,AST,dog 4002 Female,32 IU/L and 35 IU/L
same,BUN,dog 4002 Female,13 mg/dL and 12 mg/dL
same,CA2,dog 4002 Female,11.1 mg/dL and 11.2 mg/dL
same,CHOL,dog 4002 Female,182 mg/dL and 169 mg/dL
same,CREA,dog 4002 Female,0.6 mg/dL and 0.5 mg/dL
same,Cl,dog 4002 Female,116 mmo/L and 112 mmo/L
